Assay results from patent US12715865B2, “Modulators of the integrated stress response pathway” (EVOTEC INTERNATIONAL GMBH, priority 2020, dated 2026).
Read-outs that look alike come from different tables or passages of the source.

Test system: Tunicamycin induced ISR (ATF4) in wild-type HEK293 cells
Experiment: HEK-ATF4 High Content Imaging assay (ATF4 signal ratio between nucleus and cytoplasm)
Assay type: cell-based
Conditions: prevention of Tunicamycin induced ISR, 6 hrs incubation, read-out: Activity (IC50, HEK-ATF4 readout)
Experimental: II Biological Assay HEK-ATF4 High Content Imaging Assay
Example compounds were tested in the HEK-ATF4 High Content Imaging assay to assess their pharmacological potency to prevent Tunicamycin induced ISR. Wild-type HEK293 cells were plated in 384-well imaging assay plates at a density of 12,000 cells per well in growth medium (containing DMEM/F12, 10% FBS, 2 mM L-Glutamine, 100 U/mL Penicillin-100 μg/mL Streptomycin) and incubated at 37° C., 5% CO2. 24-hrs later, the medium was changed to 50 μl assay medium per well (DMEM/F12, 0.3% FBS, 2 mM L-Glutamine, 100 U/mL Penicillin-100 μg/mL Streptomycin). Example compounds were serially diluted in dimethyl sulfoxide (DMSO), spotted into intermediate plates and prediluted with assay medium containing 3.3 μM Tunicamycin to give an 11-fold excess of final assay concentration. In addition to the example compound testing area, the plates also contained multiples of control wells for assay normalization purposes, wells containing Tunicamycin but no example compounds (High control), as well as wells containing neither example compound nor Tunicamycin (Low control). The assay was started by transferring 5 μl from the intermediate plate into the assay plates, followed by incubation for 6 hrs at 37° C., 5% CO2. Subsequently, cells were fixed (4% PFA in PBS, 20 min at room temperature) and submitted to indirect ATF4 immunofluorescence staining (primary antibody rabbit anti ATF4, clone D4B8, Cell Signaling Technologies; secondary antibody Alexa Fluor 488 goat anti-rabbit IgG (H+L), Thermofisher Scientific). Nuclei were stained using Hoechst dye (Thermofisher Scientific), and plates were imaged on an Opera Phenix High Content imaging platform equipped with 405 nm and 488 nm excitation. Finally, images were analyzed using script based algorithms. The main readout HEK-ATF4 monitored the ATF4 signal ratio between nucleus and cytoplasm. Tunicamycin induced an increase in the overall ATF4 ratio signal, which was prevented by ISR modulating example compounds. In addition, HEK-CellCount readout was derived from counting the number of stained nuclei corresponding to healthy cells. This readout served as an internal toxicity control.

O=C(COc1ccc(Cl)c(F)c1)N[C@@H]1CCN(c2nnc(-c3ccc(Cl)cc3)o2)C[C@H]1O (stereo in doubt) [Example 3, 2-(4-chloro-3-fluorophenoxy)-N-[(3R*,4R*)-1-[5-(4-chlorophenyl)-1,3,4-oxadiazol-2-yl]-3-hydroxypiperidin-4-yl]acetamide]
IC50: 0.001 to 0.5 µM

O=C(COc1ccc(Cl)c(F)c1)N[C@@H]1CCN(c2nnc(-c3ccc(Cl)cc3)o2)C[C@H]1O (stereo in doubt) [Example 11, 2-(4-Chloro-3-fluorophenoxy)-N-[(3R,4R)-1-[5-(4-chlorophenyl)-1,3,4-oxadiazol-2-yl]-3-hydroxypiperidin-4-yl]acetamide]
IC50: 0.5 to 2 µM

O=C(COc1ccc(Cl)c(F)c1)N[C@H]1CCN(c2nnc(-c3ccc(Cl)cc3)o2)C[C@@H]1O (stereo in doubt) [Example 12, 2-(4-Chloro-3-fluorophenoxy)-N-[(3S,4S)-1-[5-(4-chlorophenyl)-1,3,4-oxadiazol-2-yl]-3-hydroxypiperidin-4-yl]acetamide]
IC50 (Homo sapiens, HEK293, 6 h): 0.001 to 0.5 µM

O=C(COc1ccc(Cl)c(F)c1)NC1CCN(c2nnc(-c3ccc(Cl)cn3)o2)CC1 [Example 1, 2-(4-chloro-3-fluorophenoxy)-N-{1-[5-(5-chloropyridin-2-yl)-1,3,4-oxadiazol-2-yl]piperidin-4-yl}acetamide]
IC50 (Homo sapiens, HEK293, 6 h): 0.001 to 0.5 µM

O=C(COc1cnc(Cl)c(F)c1)NC1CCN(c2nnc(-c3ccc(Cl)cc3)o2)CC1 [Example 2, 2-[(6-chloro-5-fluoropyridin-3-yl)oxy]-N-{1-[5-(4-chlorophenyl)-1,3,4-oxadiazol-2-yl]piperidin-4-yl}acetamide]
IC50 (Homo sapiens, HEK293, 6 h): 0.001 to 0.5 µM

O=C(COc1ccc(Cl)c(F)c1)NC1CCN(c2nnc(-c3ccc(Cl)cc3)o2)CC1 [Example 4, 2-(4-chloro-3-fluoro-phenoxy)-N-[1-[5-(4-chlorophenyl)-1,3,4-oxadiazol-2-yl]-4-piperidyl]acetamide]
IC50 (Homo sapiens, HEK293, 6 h): 0.001 to 0.5 µM

O=C(COc1ccc(Cl)c(F)c1)NC1CCN(c2nnc(CCCC(F)(F)F)o2)CC1 [Example 5, 2-(4-Chloro-3-fluorophenoxy)-N-{1-[5-(4,4,4-trifluorobutyl)-1,3,4-oxadiazol-2-yl]piperidin-4-yl}acetamide]
IC50 (Homo sapiens, HEK293, 6 h): 0.5 to 2 µM

O=C(COc1ccc(Cl)c(F)c1)NC1CCCN(c2nnc(-c3ccc(Cl)cc3)o2)CC1 (centres unmarked) [Example 6, 2-(4-chloro-3-fluorophenoxy)-N-{1-[5-(4-chlorophenyl)-1,3,4-oxadiazol-2-yl]azepan-4-yl}acetamide]
IC50 (Homo sapiens, HEK293, 6 h): 0.5 to 2 µM

O=C(COc1ccc(Cl)c(F)c1)N[C@H]1[C@@H]2CN(c3nnc(-c4ccc(Cl)cc4)o3)C[C@@H]21 [Example 7, 2-(4-Chloro-3-fluorophenoxy)-N-[(1R,5S,6R)-3-[5-(4-chlorophenyl)-1,3,4-oxadiazol-2-yl]-3-azabicyclo[3.1.0]hexan-6-yl]acetamide]
IC50 (Homo sapiens, HEK293, 6 h): 0.5 to 2 µM

O=C(COc1ccc(Cl)c(F)c1)NN1CCN(c2nnc(-c3ccc(Cl)cc3)o2)CC1 [Example 8, 2-(4-Chloro-3-fluorophenoxy)-N-{4-[5-(4-chlorophenyl)-1,3,4-oxadiazol-2-yl]piperazin-1-yl}acetamide]
IC50 (Homo sapiens, HEK293, 6 h): 0.001 to 0.5 µM

O=C(COc1ccc(Cl)c(F)c1)NC1CCN(c2nnc(OCCOC(F)(F)F)o2)CC1 [Example 9, 2-(4-chloro-3-fluorophenoxy)-N-(1-{5-[2-(trifluoromethoxy)ethoxy]-1,3,4-oxadiazol-2-yl}piperidin-4-yl)acetamide]
IC50 (Homo sapiens, HEK293, 6 h): 0.001 to 0.5 µM

O=C(COc1ccc(Cl)c(F)c1)NC1CCN(c2nnc(N3CC(OC(F)(F)F)C3)o2)CC1 [Example 10, 2-(4-chloro-3-fluorophenoxy)-N-(1-{5-[3-(trifluoromethoxy)azetidin-1-yl]-1,3,4-oxadiazol-2-yl}piperidin-4-yl)acetamide]
IC50 (Homo sapiens, HEK293, 6 h): 0.001 to 0.5 µM

O=C(COc1ccc(Cl)c(F)c1)N[C@H]1CCCN(c2nnc(-c3ccc(Cl)cc3)o2)CC1 [Example 13, 2-(4-Chloro-3-fluorophenoxy)-N-[(4S)-1-[5-(4-chlorophenyl)-1,3,4-oxadiazol-2-yl]azepan-4-yl]acetamide]
IC50 (Homo sapiens, HEK293, 6 h): 0.5 to 2 µM

O=C(COc1ccc(Cl)c(F)c1)N[C@@H]1CCCN(c2nnc(-c3ccc(Cl)cc3)o2)CC1 [Example 14, 2-(4-chloro-3-fluorophenoxy)-N-[(4R)-1-[5-(4-chlorophenyl)-1,3,4-oxadiazol-2-yl]azepan-4-yl]acetamide]
IC50 (Homo sapiens, HEK293, 6 h): 2 to 15 µM
